{
  "source": "paper PMC8131842",
  "about": "“Therapeutic Potential of Vasoactive Intestinal Peptide and its Derivative Stearyl-Norleucine-VIP in Inflammation-Induced Osteolysis” (Frontiers in Pharmacology, 2021)",
  "key": {"[1]": {"tested_on": "Primary murine preosteoclasts", "assay": "Osteoclastogenesis assay with conditioned medium from TiP-exposed macrophages (TRAP staining)", "assay_type": "cell-based, mouse", "details": "10^-6 M, conditioned medium of TiP-exposed macrophages", "procedure": "Osteoclastogenesis assay. Preosteoclasts, prepared like the BMDMs, were plated in 96-well plates (7,000 cells per well, for TRAP staining, see below) or in 6-well plates (200,000 cells per well, for RNA) in standard medium supplemented with 20 ng/ml M-CSF and 50 ng/ml RANKL (R&D Systems, Minneapolis, MN, United States). After 48 h, the medium was replaced by the conditioned medium of BMDM, supplemented with RANKL and M-CSF. Where indicated, 10^−6 M SNV or VIP were added. […], cells were stained using a TRAP kit (Sigma-Aldrich, St. Louis, MO, United States), and multinucleated (>3 nuclei) TRAP-positive cells were defined as osteoclasts. Images were acquired at an original magnification of ×4 (Evos FLC, Life Technologies, MS, United States). The number of osteoclasts and the total osteoclast area were measured using ImageJ software (National Institutes of Health, Bethesda, MD, United States).\n(§1) FIGURE 4 VIP and SNV alleviate the osteoclastogenic effect of TiP-induced inflammation. (A) Primary BMDM were exposed to TiP and RNA was collected after 24 h. mRNA expression are presented as Mean±SD fold change versus Control. * p<0.05 vs. Control. (B-D) Primary murine preosteoclasts were cultured in 20 ng/ml M-CSF and 50 ng/ml RANKL for 48 h. Conditioned medium from macrophages (Control) and macrophages exposed to Ti particles (Ti, as in A) was then added together with 10^-6M of VIP or SNV (or saline) for 48 h before TRAP staining. Data are Mean±SD for osteoclast % surface area (B) and number per well (C). (D) Representative images all acquired at a 4x original magnification. The scale bar for all images is in the upper left panel. n=8, #p<0.05 vs. Control; *p<0.05 vs. Ti, ANOVA. (E) Primary murine macrophages/preosteoclasts were cultured in 20 ng/ml M-CSF and Ti particles, 10^-6M of VIP or SNV, or saline only. MTT viability assay was performed after 1, 3 and 5 days and presented as optical density values. N=5, no statistical differences were found between the treatment groups. Data are Mean±SD in arbitrary OD units."}, "[2]": {"tested_on": "Primary murine macrophages/preosteoclasts", "assay": "MTT viability assay", "assay_type": "cell-based, mouse", "details": "10^-6 M, 20 ng/ml M-CSF, 1, 3 and 5 days of treatment, N=5", "procedure": "MTT assay. For proliferation assay, macrophages were plated (4000 cells/well) into 96-well plate with standard medium supplemented with 20 ng of M-CSF. Cells were treated as indicated with either TiP, SNV, VIP (10^−6 M) or vehicle at first day of incubation. Cells viability was determined using dimethylthiazol-diphenyl-tetrazolium-bromide (MTT) after 1, 3 or 5 days. MTT was added to a final concentration of 5 mg/ml and incubated for 4 h at 37°C. After complete solubilization of the die in DMSO, plates were read at 570 nm in a colorimetric plate reader.\nas §1, with “(E) Primary murine macrophages/preosteoclasts were cultured in 20 ng/ml M-CSF and Ti particles, 10^-6M of VIP or SNV, or saline only. MTT viability assay was performed after 1, 3 and 5 days and presented as optical density values. N=5, no statistical differences were found between the treatment groups. Data are Mean±SD in arbitrary OD units.” left out"}, "[3]": {"assay": "Rat model of transepithelial penetrability (vaginal delivery of 125I-SNV, organ radioactivity)", "assay_type": "in vivo", "details": "125I-labelled SNV", "source_text": "Rat model of transepithelial penetrability. Because of the high hydrophobicity of SNV, we employed an iodination labeling protocol based on the Chloramine T method ([Markwell, 1982]) using 1 mCi Na^125I with a few modifications that included 1) the dissolution of SNV in dimethylformamide (DMF), 2) replacement of the phosphate buffer with 0.2 M HEPES (pH = 7.6), a more compatible buffer, and 3) reaction termination by the addition of sodium metabisulfite and KI. The pharmacokinetic profile of ^125I-SNV absorption and distribution was evaluated following vaginal delivery of the compound to rats. Wistar rats at the estrus phase received 50 µl (7.0 µCi/rat, 15 million CPM, 100 Ci/mM specific activity) of ^125I-SNV dissolved in 5% Sefsol, applied directly in the vagina, using a P100 micro pipettor. At the indicated time points, we anesthetized the rats with chloral hydrate and collected blood before cervical dislocation. We then harvested the uterus, liver, lungs, heart, intestine, kidneys and vagina (duplicate samples were taken from each organ). Organs were weighed and radioactivity levels were measured using a gamma counter. Each point on the chart represents at least two rats.\n7.0 microCi/rat (15 million CPM, 100 Ci/mmole specific activity) of radioactive SNV was delivered in the vagina of rats at T0. Each point on the chart represents at least two rats. Levels of radioactivity were monitored over 250 min to assess the remaining amount of SNV in the vagina (A) versus its distribution in the indicated organs (B) as a measure of its penetrability through the vaginal epithelium. Data are Mean ± SD."}, "[4]": {"details": "20 ng/ml M-CSF + 50 ng/ml RANKL, TRAP staining, n=8, vs Ti"}, "[5]": {"details": "7.0 µCi/rat in 5% Sefsol, vaginal delivery, Wistar rats at estrus, monitored over 250 min, gamma counter, at least two rats per point"}},
  "data": [
    {"substance": "Stearyl–HSDAVFTDNYTRLRKQ-Nle-AVKKYLNSILN-NH2 [SNV, Stearyl-norleucine-VIP, lipophilic VIP derivative with N-terminal stearic acid and norleucine in place of methionine at position 17]", "values": [
      {"measurement": "Inhibitory effect on osteoclasts compared with VIP", "setting": "[1]", "value": "stronger inhibitory effect on osteoclasts than VIP"},
      {"measurement": "Osteoclast area", "setting": "[1]; [4]", "value": "attenuated"},
      {"measurement": "Osteoclast number", "setting": "[1]; [4]", "value": "attenuated"},
      {"measurement": "Viability of the cells (MTT, optical density)", "setting": "[2]", "value": "neither VIP nor SNV affected the viability"},
      {"measurement": "Levels of SNV in the blood, heart, lungs, liver, gut, uterus and kidneys (radioactivity)", "setting": "[3]; [5]", "value": "steadily increased"},
      {"measurement": "Local levels of SNV in the vagina (radioactivity)", "setting": "[3]; [5]", "value": "decline over time"},
      {"measurement": "Penetrability through the vaginal epithelium", "setting": "[3]; vaginal delivery in rats, over 250 min", "value": "high penetrability"}
    ]}
  ]
}
